# Patent US9981918B2, “Kynurenine-3-monooxygenase inhibitors, pharmaceutical compositions, and methods of use thereof” (CHDI Foundation, Inc., priority 2011, dated 2018)
# System: KMO
# Assay: KMO inhibition: L-Kynurenine hydroxylation to 3-Hydroxy-Kynurenine monitored by LC/MS
# Type: biochemical
# Details: compound at 10 uM; footnote: some portion of activity of amides may be due to contribution of acid precursor
# Description: A generalized procedure for monitoring L-Kynurenine (KYN) hydroxylation to form product 3-Hydroxy-Kynurenine (30H-KYN) by LC/MS is described below. Product is quantified by multiple reaction monitoring using MS.
# A method of monitoring L-Kynurenine (KYN) hydroxylation to form product 3-Hydroxy-Kynurenine (30H-KYN) by LC/MS is described below. Product is quantified by multiple reaction monitoring.
# • Compound: Stock concentrations: 10 mM in 100% DMSO • Enzyme: KMO enzyme prepared at Evotec via mitochondria isolation from CHO-GST HIS KMO cells • Substrate: L-Kynurenine (Sigma: Cat# K3750) • [stock concentration: 10 mM in 100 mM potassium phosphate buffer, pH 7.4]
# A method of monitoring L-Kynurenine (KYN) hydroxylation to form 3-Hydroxy-Kynurenine (30H-KYN) by LC/MS is described. Product is quantified by multiple reaction monitoring (MRM method).
row,Structure (SMILES),% Inhibition at 10 uM*
1,CCC(C)Oc1ccc(-c2ccnc(C(=O)O)c2)cc1Cl (stereo in doubt) [listing 1 of 2 here],50%
2,CCC(C)Oc1ccc(-c2ccnc(C(=O)O)c2)cc1Cl (stereo in doubt) [listing 2 of 2 here],82%
3,CCC(C)Oc1ccc(-c2cc(C(=O)O)ncn2)cc1Cl (stereo in doubt) [6-(4-(R)-sec-Butoxy-3-chloro-phenyl)-pyrimidine-4-carboxylic acid],100%
4,CCC(C)Oc1ccc(-c2cc(C(=O)O)ncn2)cc1Cl (stereo in doubt) [6-(4-(S)-sec-Butoxy-3-chloro-phenyl)-pyrimidine-4-carboxylic acid],100%
5,O=C(O)c1cc(-c2ccc(OC3CC3)c(Cl)c2)ccn1 [4-(3-Chloro-4-cyclopropoxy-phenyl)-pyridine-2-carboxylic acid],100%
6,CC(C)Oc1ccc(-c2ccnc(C(=O)O)c2)cc1Cl [4-(3-Chloro-4-isopropoxy-phenyl)-pyridine-2-carboxylic acid],80%
7,"O=C1OCCc2c1ncnc2-c1ccc(OC2CC2)c(Cl)c1 [4-(3-chloro-4-cyclopropoxyphenyl)-5H,6H,8H-pyrano[3,4-d]pyrimidin-8-one]",100%
8,"O=C1OCc2c1ncnc2-c1ccc(OC2CC2)c(Cl)c1 [4-(3-chloro-4-cyclopropoxyphenyl)-5H,7H-furo[3,4-d]pyrimidin-7-one]",100%
9,"O=C(O)c1cc(-c2ccc3c(c2)OCO3)ncn1 [6-(2H-1,3-benzodioxol-5-yl)pyrimidine-4-carboxylic acid]",101%
10,Nc1cc(-c2cc(C(=O)O)ncn2)ccc1Cl [6-(3-Amino-4-chloro-phenyl)-pyrimidine-4-carboxylic acid],101.01%
11,O=C(O)c1cc(-c2ccc(OC3CC3)c(Cl)c2)ncn1 [6-(3-Chloro-4-cyclopropoxy-phenyl)-pyrimidine-4-carboxylic acid],100%
12,Cc1nc(C(=O)O)cc(-c2ccc(OC(C)C)c(Cl)c2)n1 [6-(3-Chloro-4-isopropoxy-phenyl)-2-methyl-pyrimidine-4-carboxylic acid],70%
13,CC(C)c1ccc(-c2cc(C(=O)O)ncn2)cc1Cl [6-(3-Chloro-4-isopropyl-phenyl)-pyrimidine-4-carboxylic acid],100%
14,CC(C)c1ccc(-c2cc(C(=O)O)ncn2)cc1F [6-(3-Fluoro-4-isopropyl-phenyl)-pyrimidine-4-carboxylic acid],85%
15,Cc1nc(C(=O)O)cc(-c2ccc(C)c(F)c2)n1 [6-(3-Fluoro-4-methyl-phenyl)-2-methyl-pyrimidine-4-carboxylic acid],96%
16,O=C(O)c1cc(-c2ccc(C(=O)C3CC3)c(Cl)c2)ncn1 [6-(3-chloro-4-cyclopropanecarbonylphenyl)pyrimidine-4-carboxylic acid],101%
17,O=C(O)c1ncnc(-c2ccc(OC3CC3)c(Cl)c2)c1CO [6-(3-chloro-4-cyclopropoxyphenyl)-5-(hydroxymethyl)pyrimidine-4-carboxylic acid],100%
18,Cc1c(C(=O)O)ncnc1-c1ccc(OC2CC2)c(Cl)c1 [6-(3-chloro-4-cyclopropoxyphenyl)-5-methylpyrimidine-4-carboxylate],100%
19,"Cc1nc2c(Cl)cc(-c3cc(C(=O)O)ncn3)cc2o1 [6-(4-chloro-2-methyl-1,3-benzoxazol-6-yl)pyrimidine-4-carboxylic acid]",102%

row,Structure (SMILES),% Inhibition at 10 uM*
1,O=C(O)c1cc(-c2cc(Cl)c3occc3c2)ncn1 [6-(7-Chloro-benzofuran-5-yl)-pyrimidine-4-carboxylic acid],100%
2,"O=C(O)c1cc(-c2cc(Cl)c3c(c2)CCO3)ncn1 [6-(7-chloro-2,3-dihydro-1-benzofuran-5-yl)pyrimidine-4-carboxylic acid]",102%
3,"O=C(O)c1cc(-c2cc(Cl)c3oc(C4CC4)nc3c2)ncn1 [6-(7-chloro-2-cyclopropyl-1,3-benzoxazol-5-yl)pyrimidine-4-carboxylic acid]",100%
4,"Cc1nc2cc(-c3cc(C(=O)O)ncn3)cc(Cl)c2o1 [6-(7-chloro-2-methyl-1,3-benzoxazol-5-yl)pyrimidine-4-carboxylic acid]",102%
5,"Cn1c(=O)oc2c(Cl)cc(-c3cc(C(=O)O)ncn3)cc21 [6-(7-chloro-3-methyl-2-oxo-2,3-dihydro-1,3-benzoxazol-5-yl)pyrimidine-4-carboxylic acid]",100%
6,O=C(O)c1cc(-c2cc(Cl)c3c(c2)CCCO3)ncn1 [6-(8-Chloro-chroman-6-yl)-pyrimidine-4-carboxylic acid],100%
7,"O=C(O)c1cc(-c2cc(Cl)c3c(c2)CCCN3)ncn1 [6-(8-chloro-1,2,3,4-tetrahydroquinolin-6-yl)pyrimidine-4-carboxylate]",100%
8,"CN1CCCc2cc(-c3cc(C(=O)O)ncn3)cc(Cl)c21 [6-(8-chloro-1-methyl-1,2,3,4-tetrahydroquinolin-6-yl)pyrimidine-4-carboxylic acid]",100%
9,O=C([O-])c1cc(-c2cc(Cl)c3ncccc3c2)ncn1.[Na+] [6-(8-chloroquinolin-6-yl)pyrimidine-4-carboxylate],100%
10,O=C(O)c1cc(-c2cc(Cl)c3nccnc3c2)ncn1 [6-(8-chloroquinoxalin-6-yl)pyrimidine-4-carboxylic acid],102%
11,O=C(O)c1cc(-c2ccc3ncccc3c2)ncn1 [6-Quinolin-6-yl-pyrimidine-4-carboxylic acid],100%
12,"CC(Oc1ccc(-c2cc(C(=O)O)ncn2)cc1Cl)C(F)(F)F (centres unmarked) [6-[3-Chloro-4-(2,2,2-trifluoro-1-methyl-ethoxy)-phenyl]-pyrimidine-4-carboxylic acid]",94%
13,O=C(O)c1cc(-c2ccc(OCCN3CCCCC3)c(Cl)c2)ncn1 [6-[3-Chloro-4-(2-piperidin-1-yl-ethoxy)-phenyl]-pyrimidine-4-carboxylic acid],90%
14,O=C(O)c1cc(-c2ccc(OC3CCNC3)c(Cl)c2)ncn1 (centres unmarked) [6-[3-Chloro-4-(pyrrolidin-3-yloxy)-phenyl]-pyrimidine-4-carboxylic acid],80%
15,COC(C)c1ccc(-c2cc(C(=O)O)ncn2)cc1Cl (centres unmarked) [6-[3-chloro-4-(1-methoxyethyl)phenyl]pyrimidine-4-carboxylic acid],101%
16,O=C(O)c1cc(-c2ccc(NC3CC3)c(Cl)c2)ncn1 [6-[3-chloro-4-(cyclopropylamino)phenyl]pyrimidine-4-carboxylic acid],101%
17,COCc1ccc(-c2cc(C(=O)O)ncn2)cc1Cl [6-[3-chloro-4-(methoxymethyl)phenyl]pyrimidine-4-carboxylic acid],105%
18,CSc1ccc(-c2cc(C(=O)O)ncn2)cc1Cl [6-[3-chloro-4-(methylsulfanyl)phenyl]pyrimidine-4-carboxylic acid],103%
19,C[S+]([O-])c1ccc(-c2cc(C(=O)O)ncn2)cc1Cl (centres unmarked) [6-[3-chloro-4-(methylsulfinyl)phenyl]pyrimidine-4-carboxylic acid],100%
